#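 Cultured in 96-well plates, cells were exposed to test compound for 48 hours across five concentrations. TGI denotes the concentration required for complete inhibition of growth.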
# Test system: ACHN renal
# Experiment: NCI anticancer screen, dose series, 48 h
row,Compound,TGI
1,CC(=O)OCC1OC(n2c(C)cc(C)c(C#N)c2=S)C(OC(C)=O)C(OC(C)=O)C1OC(C)=O (stereo not given),> 100 µM
2,COC(=O)NC(C(F)(F)F)(C(F)(F)F)P1(=O)OCCCO1,54.2 µM
3,CNCCCn1c2ccccc2c2c3c(c(-c4ccsc4)cc21)C(=O)NC3=O,1.23 µM
4,Cc1cc(/N=C/c2ccc(F)cc2)n(-c2ccccc2)n1,> 100 µM
5,CCOC(=O)/C=C(/C(=O)OCC)n1cnc2c(=O)[nH]c(NC(C)=O)nc21,> 100 µM
6,Nc1ccn([C@H]2CO[C@@H](CO)[C@@H]2O)c(=O)n1,> 100 µM
7,O=C1NC(N/N=C\C(O)C(O)C(O)C(O)CO)=N/C1=C/c1ccc(Cl)cc1 (stereo not given),> 100 µM
8,CCOC(=O)Cc1ccc(Nc2nc3ccccc3nc2C(=O)OCC)cc1,> 100 µM
9,CC(C)[Si]1(C(C)C)OCC2OC3(CO)C(Oc4nc(=O)ccn43)C2O[Si](C(C)C)(C(C)C)O1 (stereo not given),29.3 µM
10,CC(C)(C)[Si](C)(C)Oc1ccc(C2CNC(=O)C23CCC(=O)N3Cc2ccccc2)cc1 (stereo not given),30.9 µM

# Test system: NCI-H23 lung
# Experiment: NCI anticancer screen, dose series, 48 h
row,Compound,TGI
1,O=C(N(O)c1ccccc1Cl)C(O)(c1ccccc1)c1ccccc1,> 100 µM
2,CCOC(=O)c1nc2cc(F)c(N3CCOCC3)cc2[nH]c1=O,> 100 µM
3,CCCC(=O)N1CCN(c2ccc3c(c2)OC(C)O3)CC1 (stereo not given),> 100 µM
4,COC(=O)C1=C(O)c2ccc(Cl)cc2S(=O)(=O)N1C,> 100 µM
5,CCOC(=O)[C@H](C)OC(=O)[C@@](C)(NC(=O)c1ccccc1C(=O)OC)[C@@H]1NC=C(C(=O)OC)CS1,> 100 µM
6,CC1(C)OC2C(O)C(CO)OC2(C(F)F)O1 (stereo not given),> 100 µM
7,COCOC1C=CCCCC2=CC(C)=C(CC1)O2 (stereo not given),> 100 µM
8,Cn1c2ccccc2c(=O)c2cccc(C(=O)NC(CS)C(=O)O)c21 (stereo not given),> 100 µM
9,COc1ccc(-c2cc3ccccc3oc2=O)cc1OC,> 100 µM
10,CCC(=O)O[C@H]1CC[C@H]2[C@@H]3CCC4=C/C(=N/OC(=O)c5cccc6cc7ccccc7nc56)CC[C@]4(C)[C@H]3CC[C@]12C,> 100 µM
11,CC(=O)OCC1OC(n2c(C)cc(C)c(C#N)c2=S)C(OC(C)=O)C(OC(C)=O)C1OC(C)=O (stereo not given),> 100 µM
12,COC(=O)NC(C(F)(F)F)(C(F)(F)F)P1(=O)OCCCO1,50.9 µM
13,CNCCCn1c2ccccc2c2c3c(c(-c4ccsc4)cc21)C(=O)NC3=O,1.74 µM
14,Cc1cc(/N=C/c2ccc(F)cc2)n(-c2ccccc2)n1,> 100 µM
15,CCOC(=O)/C=C(/C(=O)OCC)n1cnc2c(=O)[nH]c(NC(C)=O)nc21,> 100 µM
16,Nc1ccn([C@H]2CO[C@@H](CO)[C@@H]2O)c(=O)n1,> 100 µM
17,O=C1NC(N/N=C\C(O)C(O)C(O)C(O)CO)=N/C1=C/c1ccc(Cl)cc1 (stereo not given),> 100 µM
18,CCOC(=O)Cc1ccc(Nc2nc3ccccc3nc2C(=O)OCC)cc1,> 100 µM
19,CC(C)[Si]1(C(C)C)OCC2OC3(CO)C(Oc4nc(=O)ccn43)C2O[Si](C(C)C)(C(C)C)O1 (stereo not given),30.1 µM
20,CC(C)(C)[Si](C)(C)Oc1ccc(C2CNC(=O)C23CCC(=O)N3Cc2ccccc2)cc1 (stereo not given),25.5 µM

# Test system: SK-MEL-28 melanoma
# Experiment: NCI anticancer screen, dose series, 48 h
row,Compound,TGI
1,O=C(N(O)c1ccccc1Cl)C(O)(c1ccccc1)c1ccccc1,> 100 µM
2,CCOC(=O)c1nc2cc(F)c(N3CCOCC3)cc2[nH]c1=O,> 100 µM
3,CCCC(=O)N1CCN(c2ccc3c(c2)OC(C)O3)CC1 (stereo not given),> 100 µM
4,COC(=O)C1=C(O)c2ccc(Cl)cc2S(=O)(=O)N1C,> 100 µM
5,CCOC(=O)[C@H](C)OC(=O)[C@@](C)(NC(=O)c1ccccc1C(=O)OC)[C@@H]1NC=C(C(=O)OC)CS1,> 100 µM
6,CC1(C)OC2C(O)C(CO)OC2(C(F)F)O1 (stereo not given),> 100 µM
7,COCOC1C=CCCCC2=CC(C)=C(CC1)O2 (stereo not given),> 100 µM
8,Cn1c2ccccc2c(=O)c2cccc(C(=O)NC(CS)C(=O)O)c21 (stereo not given),> 100 µM
9,CCC(=O)O[C@H]1CC[C@H]2[C@@H]3CCC4=C/C(=N/OC(=O)c5cccc6cc7ccccc7nc56)CC[C@]4(C)[C@H]3CC[C@]12C,> 100 µM
10,CC(=O)OCC1OC(n2c(C)cc(C)c(C#N)c2=S)C(OC(C)=O)C(OC(C)=O)C1OC(C)=O (stereo not given),> 100 µM
11,COC(=O)NC(C(F)(F)F)(C(F)(F)F)P1(=O)OCCCO1,> 100 µM
12,CNCCCn1c2ccccc2c2c3c(c(-c4ccsc4)cc21)C(=O)NC3=O,3.36 µM
13,Cc1cc(/N=C/c2ccc(F)cc2)n(-c2ccccc2)n1,> 100 µM
14,CCOC(=O)/C=C(/C(=O)OCC)n1cnc2c(=O)[nH]c(NC(C)=O)nc21,> 100 µM
15,Nc1ccn([C@H]2CO[C@@H](CO)[C@@H]2O)c(=O)n1,> 100 µM
16,O=C1NC(N/N=C\C(O)C(O)C(O)C(O)CO)=N/C1=C/c1ccc(Cl)cc1 (stereo not given),> 100 µM
17,CCOC(=O)Cc1ccc(Nc2nc3ccccc3nc2C(=O)OCC)cc1,> 100 µM
18,CC(C)[Si]1(C(C)C)OCC2OC3(CO)C(Oc4nc(=O)ccn43)C2O[Si](C(C)C)(C(C)C)O1 (stereo not given),29.3 µM

# Test system: UACC-62 melanoma
# Experiment: NCI anticancer screen, dose series, 48 h
row,Compound,TGI
1,O=C(N(O)c1ccccc1Cl)C(O)(c1ccccc1)c1ccccc1,> 100 µM
2,CCOC(=O)c1nc2cc(F)c(N3CCOCC3)cc2[nH]c1=O,> 100 µM
3,CCCC(=O)N1CCN(c2ccc3c(c2)OC(C)O3)CC1 (stereo not given),> 100 µM
4,COC(=O)C1=C(O)c2ccc(Cl)cc2S(=O)(=O)N1C,> 100 µM
5,CCOC(=O)[C@H](C)OC(=O)[C@@](C)(NC(=O)c1ccccc1C(=O)OC)[C@@H]1NC=C(C(=O)OC)CS1,> 100 µM
6,CC1(C)OC2C(O)C(CO)OC2(C(F)F)O1 (stereo not given),> 100 µM
7,COCOC1C=CCCCC2=CC(C)=C(CC1)O2 (stereo not given),> 100 µM
8,Cn1c2ccccc2c(=O)c2cccc(C(=O)NC(CS)C(=O)O)c21 (stereo not given),> 100 µM
9,COc1ccc(-c2cc3ccccc3oc2=O)cc1OC,> 100 µM
10,CCC(=O)O[C@H]1CC[C@H]2[C@@H]3CCC4=C/C(=N/OC(=O)c5cccc6cc7ccccc7nc56)CC[C@]4(C)[C@H]3CC[C@]12C,> 100 µM
11,CC(=O)OCC1OC(n2c(C)cc(C)c(C#N)c2=S)C(OC(C)=O)C(OC(C)=O)C1OC(C)=O (stereo not given),> 100 µM
12,COC(=O)NC(C(F)(F)F)(C(F)(F)F)P1(=O)OCCCO1,33.2 µM
13,Cc1cc(/N=C/c2ccc(F)cc2)n(-c2ccccc2)n1,> 100 µM
14,CCOC(=O)/C=C(/C(=O)OCC)n1cnc2c(=O)[nH]c(NC(C)=O)nc21,> 100 µM
15,Nc1ccn([C@H]2CO[C@@H](CO)[C@@H]2O)c(=O)n1,> 100 µM
16,CCOC(=O)Cc1ccc(Nc2nc3ccccc3nc2C(=O)OCC)cc1,> 100 µM
17,CC(C)[Si]1(C(C)C)OCC2OC3(CO)C(Oc4nc(=O)ccn43)C2O[Si](C(C)C)(C(C)C)O1 (stereo not given),26.8 µM
18,CC(C)(C)[Si](C)(C)Oc1ccc(C2CNC(=O)C23CCC(=O)N3Cc2ccccc2)cc1 (stereo not given),32 µM

# Test system: OVCAR-5 ovarian
# Experiment: NCI anticancer screen, dose series, 48 h
row,Compound,TGI
1,O=C(N(O)c1ccccc1Cl)C(O)(c1ccccc1)c1ccccc1,> 100 µM
2,CCOC(=O)c1nc2cc(F)c(N3CCOCC3)cc2[nH]c1=O,> 100 µM
3,CCCC(=O)N1CCN(c2ccc3c(c2)OC(C)O3)CC1 (stereo not given),> 100 µM
4,COC(=O)C1=C(O)c2ccc(Cl)cc2S(=O)(=O)N1C,> 100 µM
5,CCOC(=O)[C@H](C)OC(=O)[C@@](C)(NC(=O)c1ccccc1C(=O)OC)[C@@H]1NC=C(C(=O)OC)CS1,> 100 µM
6,CC1(C)OC2C(O)C(CO)OC2(C(F)F)O1 (stereo not given),> 100 µM
7,COCOC1C=CCCCC2=CC(C)=C(CC1)O2 (stereo not given),> 100 µM
8,Cn1c2ccccc2c(=O)c2cccc(C(=O)NC(CS)C(=O)O)c21 (stereo not given),> 100 µM
9,COc1ccc(-c2cc3ccccc3oc2=O)cc1OC,> 100 µM
10,CCC(=O)O[C@H]1CC[C@H]2[C@@H]3CCC4=C/C(=N/OC(=O)c5cccc6cc7ccccc7nc56)CC[C@]4(C)[C@H]3CC[C@]12C,> 100 µM
11,CC(=O)OCC1OC(n2c(C)cc(C)c(C#N)c2=S)C(OC(C)=O)C(OC(C)=O)C1OC(C)=O (stereo not given),> 100 µM
12,COC(=O)NC(C(F)(F)F)(C(F)(F)F)P1(=O)OCCCO1,82.1 µM
13,CNCCCn1c2ccccc2c2c3c(c(-c4ccsc4)cc21)C(=O)NC3=O,3.16 µM
14,Cc1cc(/N=C/c2ccc(F)cc2)n(-c2ccccc2)n1,> 100 µM
15,CCOC(=O)/C=C(/C(=O)OCC)n1cnc2c(=O)[nH]c(NC(C)=O)nc21,> 100 µM
16,Nc1ccn([C@H]2CO[C@@H](CO)[C@@H]2O)c(=O)n1,> 100 µM
17,O=C1NC(N/N=C\C(O)C(O)C(O)C(O)CO)=N/C1=C/c1ccc(Cl)cc1 (stereo not given),> 100 µM
18,CCOC(=O)Cc1ccc(Nc2nc3ccccc3nc2C(=O)OCC)cc1,> 100 µM
19,CC(C)(C)[Si](C)(C)Oc1ccc(C2CNC(=O)C23CCC(=O)N3Cc2ccccc2)cc1 (stereo not given),36.9 µM

# Test system: BT-549 breast
# Experiment: NCI anticancer screen, dose series, 48 h
row,Compound,TGI
1,O=C(N(O)c1ccccc1Cl)C(O)(c1ccccc1)c1ccccc1,> 100 µM
2,CCOC(=O)c1nc2cc(F)c(N3CCOCC3)cc2[nH]c1=O,> 100 µM
3,CCCC(=O)N1CCN(c2ccc3c(c2)OC(C)O3)CC1 (stereo not given),> 100 µM
4,COC(=O)C1=C(O)c2ccc(Cl)cc2S(=O)(=O)N1C,> 100 µM
5,CCOC(=O)[C@H](C)OC(=O)[C@@](C)(NC(=O)c1ccccc1C(=O)OC)[C@@H]1NC=C(C(=O)OC)CS1,> 100 µM

# From PubChem BioAssay (NCI)
